Results reported in publication PMC6269873, “Substituted 3-Benzylcoumarins as Allosteric MEK1 Inhibitors: Design, Synthesis and Biological Evaluation as Antiviral Agents” (Molecules, 2013).

Tests used:
phosphorylated MEK1 = phosphorylated MEK1 (Homo sapiens, UniProt Q02750); test: MEK1 binding assay (HTRF, tracer displacement); conditions: for IC50: HTRF binding to GST tagged phosphorylated MEK1, read-out: IC50; for inhibition at 2 µM: read-out: % binding (2 µM); for inhibition at 20 µM: read-out: % binding (20 µM)
phosphorylated MEK1, sequence (Q02750 whole entry): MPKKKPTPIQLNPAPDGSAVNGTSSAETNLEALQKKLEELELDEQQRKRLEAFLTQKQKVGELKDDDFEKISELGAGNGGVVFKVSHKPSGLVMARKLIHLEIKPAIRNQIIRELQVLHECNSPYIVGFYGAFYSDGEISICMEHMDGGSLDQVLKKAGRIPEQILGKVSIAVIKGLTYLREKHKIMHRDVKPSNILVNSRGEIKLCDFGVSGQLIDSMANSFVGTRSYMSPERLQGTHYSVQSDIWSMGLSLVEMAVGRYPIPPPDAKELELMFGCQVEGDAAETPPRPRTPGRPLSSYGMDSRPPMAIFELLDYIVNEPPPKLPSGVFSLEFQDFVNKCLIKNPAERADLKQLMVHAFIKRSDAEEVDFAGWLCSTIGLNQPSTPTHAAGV
Procedure: The homogeneous time resolved fluorescence (HTRF) assay was performed on a Proxiplate-384 F plus solid back plate (Perkin Elmer, Waltham, MA. USA) with 5 nM GST tagged phosphorylated MEK1 (GST-MEK1), 2 nM europium-labeled anti-GST antibody (Eu-anti-GST), 20 nM kinase tracer 236 and test compound at a variety of concentrations. In the reaction mixture, GST-MEK1 forms a complex with the Eu-anti-GST and the tracer. Excitation of europium (the donor) using a 340-nm excitation filter results in energy transfer to the fluorophore of the tracer. This energy transfer is detected by an increase in the fluorescence emission of the tracer at 665 nm and a decrease in the fluorescence emission of europium at 615 nm. The FRET ratio was calculated by dividing the emission signal at 665 nm by the emission signal at 615 nm. A competitor compound such as a MEK inhibitor replaces the tracer from the complex and decreases the FRET ratio accordingly. The plate was incubated in dark at room temperature for 30 min before measuring the fluorescent emission of each well at 665 and 615 nm using a 340-nm excitation filter, 100-µs delay time, and 200-µs integration time, on a PHERAStar plate reader (BMG Labtech, Durham, NC, USA). […] Data shown as %Inhibition normalized to AZD6244 at 100 µM.

Row | SMILES | IC50 (phosphorylated MEK1) [nM] | inhibition at 2 µM (phosphorylated MEK1) [%] | inhibition at 20 µM (phosphorylated MEK1) [%] | melting point [°C] | binding affinity (in words) (phosphorylated MEK1)
1 | CCC(=O)Oc1cc2oc(=O)c(Cc3ccccc3)c(C)c2cc1Cl [Compound 34, 3-Benzyl-6-chloro-4-methyl-2-oxo-2H-chromen-7-yl propionate] | 326 | 70 | 72.4 | 124 to 126 | –
2 | CCC(=O)Oc1ccc2c(C)c(Cc3ccccc3)c(=O)oc2c1 [Compound 35, 3-Benzyl-4-methyl-2-oxo-2H-chromen-7-yl propionate] | 1030 | 64.5 | 85 | 118 to 119 | –
3 | CCCc1c(Cc2ccccc2)c(=O)oc2cc(OC(=O)CC)ccc12 [Compound 37, 3-Benzyl-2-oxo-4-propyl-2H-chromen-7-yl propionate] | – | 19.4 | 38.8 | 120 to 121 | –
4 | CCC(=O)Oc1ccc2c(CC)c(Cc3ccc(F)cc3)c(=O)oc2c1 [Compound 39, 4-Ethyl-3-(4-fluorobenzyl)-2-oxo-2H-chromen-7-yl propionate] | 140 | 75.4 | 76.3 | 97 to 98 | active
5 | CCCC(=O)Oc1cc2oc(=O)c(Cc3ccccc3)c(C)c2cc1Cl [Compound 41, 3-Benzyl-6-chloro-4-methyl-2-oxo-2H-chromen-7-yl butyrate] | – | 21 | 25.8 | 107 to 108 | –
6 | CCCC(=O)Oc1ccc2c(CCC)c(Cc3ccccc3)c(=O)oc2c1 [Compound 44, 3-Benzyl-2-oxo-4-propyl-2H-chromen-7-yl butyrate] | – | 14 | 38.9 | 105 to 106 | –
7 | CCCC(=O)Oc1ccc2c(C)c(Cc3ccc(F)cc3)c(=O)oc2c1 [Compound 45, 3-(4-Fluorobenzyl)-4-methyl-2-oxo-2H-chromen-7-yl butyrate] | 824 | 45.3 | 72.3 | 85 to 86 | –
8 | CCCC(=O)Oc1ccc2c(CC)c(Cc3ccc(F)cc3)c(=O)oc2c1 [Compound 46, 4-Ethyl-3-(4-fluorobenzyl)-2-oxo-2H-chromen-7-yl butyrate] | 909 | 76.9 | 96.5 | 79 | active
9 | CCCC(=O)Oc1ccc2c(CCC)c(Cc3ccc(F)cc3)c(=O)oc2c1 [Compound 47, 3-(4-Fluorobenzyl)-2-oxo-4-propyl-2H-chromen-7-yl butyrate] | 944 | 57 | 70.3 | 88 to 90 | –
10 | CCCCC(=O)Oc1ccc2c(C)c(Cc3ccccc3)c(=O)oc2c1 [Compound 48, 3-Benzyl-4-methyl-2-oxo-2H-chromen-7-yl pentanoate] | – | 18.8 | 21.2 | 110 to 111 | –
11 | CCCCC(=O)Oc1cc2oc(=O)c(Cc3ccccc3)c(C)c2cc1Cl [Compound 49, 3-Benzyl-6-chloro-4-methyl-2-oxo-2H-chromen-7-yl pentanoate] | – | 8.15 | 20.3 | 108 to 109 | –
12 | CCCCC(=O)Oc1ccc2c(CC)c(Cc3ccccc3)c(=O)oc2c1 [Compound 50, 3-Benzyl-4-ethyl-2-oxo-2H-chromen-7-yl pentanoate] | – | 37.2 | 43.2 | 72 to 73 | –
13 | CCCCC(=O)Oc1ccc2c(CCC)c(Cc3ccccc3)c(=O)oc2c1 [Compound 51, 3-Benzyl-2-oxo-4-propyl-2H-chromen-7-yl pentanoate] | – | 29.5 | 42.5 | 78 to 79 | –
14 | CCCCC(=O)Oc1ccc2c(CC)c(Cc3ccc(F)cc3)c(=O)oc2c1 [Compound 52, 4-Ethyl-3-(4-fluorobenzyl)-2-oxo-2H-chromen-7-yl pentanoate] | – | 42.8 | 34 | 70 to 71 | inactive
15 | CCCCC(=O)Oc1ccc2c(C)c(Cc3ccc(F)cc3)c(=O)oc2c1 [Compound 53, 3-(4-Fluorobenzyl)-4-methyl-2-oxo-2H-chromen-7-yl pentanoate] | – | 34.7 | 38.3 | 83 to 84 | –
16 | CCCCC(=O)Oc1ccc2c(CCC)c(Cc3ccc(F)cc3)c(=O)oc2c1 [Compound 54, 3-(4-Fluorobenzyl)-2-oxo-4-propyl-2H-chromen-7-yl pentanoate] | – | 11.7 | 23.9 | 68 to 70 | –

Row | SMILES | IC50 (phosphorylated MEK1) [nM] | inhibition at 2 µM (phosphorylated MEK1) [%] | inhibition at 20 µM (phosphorylated MEK1) [%] | melting point [°C] | binding affinity (in words) (phosphorylated MEK1)
17 | Cc1c(Cc2ccccc2)c(=O)oc2cc(OC(=O)C(C)(C)C)ccc12 [Compound 55, 3-Benzyl-4-methyl-2-oxo-2H-chromen-7-yl pivalate] | – | 14.6 | 14.8 | 157 to 158 | –
18 | Cc1c(Cc2ccccc2)c(=O)oc2cc(OC(=O)C(C)(C)C)c(Cl)cc12 [Compound 56, 3-Benzyl-6-chloro-4-methyl-2-oxo-2H-chromen-7-yl pivalate] | – | 16.6 | 34.1 | 113 | –
19 | CCc1c(Cc2ccccc2)c(=O)oc2cc(OC(=O)C(C)(C)C)ccc12 [Compound 57, 3-Benzyl-4-ethyl-2-oxo-2H-chromen-7-yl pivalate] | – | 6.61 | 21 | 105 to 106 | –
20 | CCCc1c(Cc2ccccc2)c(=O)oc2cc(OC(=O)C(C)(C)C)ccc12 [Compound 58, 3-Benzyl-2-oxo-4-propyl-2H-chromen-7-yl pivalate] | – | 43.2 | 19.1 | 138 to 139 | –
21 | CCc1c(Cc2ccc(F)cc2)c(=O)oc2cc(OC(=O)C(C)(C)C)ccc12 [Compound 59, 4-Ethyl-3-(4-fluorobenzyl)-2-oxo-2H-chromen-7-yl pivalate] | – | 45.9 | 23.4 | 103 to 104 | inactive
22 | Cc1c(Cc2ccc(F)cc2)c(=O)oc2cc(OC(=O)C(C)(C)C)ccc12 [Compound 60, 3-(4-Fluorobenzyl)-4-methyl-2-oxo-2H-chromen-7-yl pivalate] | – | 23.7 | 20.3 | 136 to 138 | –
23 | CCCc1c(Cc2ccc(F)cc2)c(=O)oc2cc(OC(=O)C(C)(C)C)ccc12 [Compound 61, 3-(4-Fluorobenzyl)-2-oxo-4-propyl-2H-chromen-7-yl pivalate] | – | 31.6 | 40.9 | 138 to 140 | –
24 | Cc1c(Cc2ccccc2)c(=O)oc2cc(OC(=O)c3ccccc3)ccc12 [Compound 62, 3-Benzyl-4-methyl-2-oxo-2H-chromen-7-yl benzoate] | – | 4.07 | 31.1 | 149 to 150 | –
25 | Cc1c(Cc2ccccc2)c(=O)oc2cc(OC(=O)c3ccccc3)c(Cl)cc12 [Compound 63, 3-Benzyl-6-chloro-4-methyl-2-oxo-2H-chromen-7-yl benzoate] | – | 33.3 | 28 | 133 to 135 | –
26 | CCc1c(Cc2ccccc2)c(=O)oc2cc(OC(=O)c3ccccc3)ccc12 [Compound 64, 3-Benzyl-4-ethyl-2-oxo-2H-chromen-7-yl benzoate] | – | 10.1 | 21.5 | 138 | –
27 | CCCc1c(Cc2ccccc2)c(=O)oc2cc(OC(=O)c3ccccc3)ccc12 [Compound 65, 3-Benzyl-2-oxo-4-propyl-2H-chromen-7-yl benzoate] | – | 32.6 | 37.1 | 120 | –
28 | Cc1c(Cc2ccc(F)cc2)c(=O)oc2cc(OC(=O)c3ccccc3)ccc12 [Compound 66, 3-(4-Fluorobenzyl)-4-methyl-2-oxo-2H-chromen-7-yl benzoate] | – | 25.8 | 31 | 151 to 153 | –
29 | CCCc1c(Cc2ccc(F)cc2)c(=O)oc2cc(OC(=O)c3ccccc3)ccc12 [Compound 68, 3-(4-Fluorobenzyl)-2-oxo-4-propyl-2H-chromen-7-yl benzoate] | – | 26.1 | 45.6 | 95 to 96 | –
30 | Cc1ccc(S(=O)(=O)Oc2ccc3c(C)c(Cc4ccccc4)c(=O)oc3c2)cc1 [Compound 76, 3-Benzyl-4-methyl-2-oxo-2H-chromen-7-yl 4-methylbenzenesulfonate] | – | 2.87 | -2.36 | 138 to 139 | –
31 | Cc1ccc(S(=O)(=O)Oc2cc3oc(=O)c(Cc4ccccc4)c(C)c3cc2Cl)cc1 [Compound 77, 3-Benzyl-6-chloro-4-methyl-2-oxo-2H-chromen-7-yl 4-methylbenzenesulfonate] | – | 31.7 | 29.6 | 173 to 174 | –
32 | Cc1ccc(S(=O)(=O)Oc2ccc3c(C)c(Cc4ccc(F)cc4)c(=O)oc3c2)cc1 [Compound 81, 3-(4-Fluorobenzyl)-4-methyl-2-oxo-2H-chromen-7-yl 4-methylbenzenesulfonate] | – | 8.05 | 9.55 | 95 to 96 | –
